According to patent US5468875A, “1-azabicycloheptane derivatives” (American Home Products Corporation, priority 1994, dated 1995):
Where two headings read alike, the source gives them in different places.

Legend:
m1 receptor = m1 receptor (Homo sapiens, UniProt P11229); assay: biochemical; conditions: ml 3H QNB Binding in CHO cells Ki, 0.23 nM [3H]QNB, 37° C., one hour
[1] = molecular target: T1, M1 acetylcholine receptors (Homo sapiens, UniProt P11229); assay: stimulation of phosphoinositide (PI) hydrolysis in CHO cells transfected with M1 receptor cDNA; type: cell-based; conditions: for Emax: CHO, 1 h; for EC50: m1 receptors in CHO cells, read-out: % PI Hydrolysis ml receptors in CHO cells ED50; for functional m1 muscarinic agonism: exo versus endo, in words
T1 sequence (P11229 1-460): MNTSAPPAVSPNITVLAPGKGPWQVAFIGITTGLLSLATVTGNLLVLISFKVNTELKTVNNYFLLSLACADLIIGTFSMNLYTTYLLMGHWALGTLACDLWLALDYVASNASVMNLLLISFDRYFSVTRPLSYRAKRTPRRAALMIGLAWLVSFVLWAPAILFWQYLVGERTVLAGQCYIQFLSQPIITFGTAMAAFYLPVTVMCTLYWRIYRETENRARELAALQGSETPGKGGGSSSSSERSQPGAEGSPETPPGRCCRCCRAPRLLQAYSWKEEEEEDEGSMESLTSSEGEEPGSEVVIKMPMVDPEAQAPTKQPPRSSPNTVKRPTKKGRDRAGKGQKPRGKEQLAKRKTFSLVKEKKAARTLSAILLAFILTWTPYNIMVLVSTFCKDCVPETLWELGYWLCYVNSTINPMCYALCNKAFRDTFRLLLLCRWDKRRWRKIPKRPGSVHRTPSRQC

muscarinic = conditions: cited from earlier work
[2] = cited from earlier work
[3] = system: patients with mild to moderate Alzheimer's Disease; conditions: cited from earlier work; for improvement in memory: patients with mild to moderate Alzheimer's Disease
m1 receptors = conditions: cited from earlier work
[4] = system: scopolamine treated animals; assay: reversal of scopolamine-induced hyperactivity, swim tank test; type: in vivo, Male CFW mice; conditions: Mus musculus, ip, 5 min, mice, scopolamine.HBr 0.3 mg/kg i.p., swim distance, read-out: minimum effective dose (MED), reversal of hyperactivity of scopolamine treated animals
Description: The compound of Example 3, representative of the other compounds of this invention, was also tested in accordance with the procedure of Symons et al, Soc. Neuroscience Abstracts 12:2, 897 (1986) in which Male CFW mice, 25 to 35 grams in weight are given the test compound in suitable vehicle plus 0.3 mg/kg scopolamine.HBr in suitable vehicle, i.p.(3 groups of 12 animals each) or vehicle alone (1 group of 12 animals ) or vehicle plus scopolamine.HBr (1 group of 12 animals). The mice are placed in a swim tank, individually, containing 10 cm H2 O for a period of 5 minutes and the distance each animal swims is recorded.

[5] = system: scopolamine disrupted rat performance; assay: eight arm radial maze test, scopolamine disrupted performance; type: in vivo, Sprague-Dawley male rats; conditions: ip, rats, test compound i.p., scopolamine HBr 0.3 mg/kg, s.c., read-out: minimum effective dose (MED), reversal of scopolamine disrupted rat performance
Description: The compound of Example 3 was also tested in the eight arm radial maze test procedure in which Sprague-Dawley male rats at 85% of their free feeding weight are trained to obtain two food pellets from food cups placed at the ends of four of the eight arms radiating from a circular central area of the maze, in a five minute period. After training to a level of error (rerum to a previously entered arm is error) equal to or less than 2, the rats performance is disrupted with scopolamine HBr (0.3 mg/kg, s.c.) and test compound dosage (i.p.). The number of errors are then determined and compared with control receiving scopolamine alone.

[6] = read-out: % PI Hydrolysis ml receptors in CHO cells maximum % carbachol=100%
[7] = read-out: % PI Hydrolysis ml receptors in CHO cells 30x Ki (μM) carb=100%

**Q.** With `CNC(=S)O[C@H]1CN2CC[C@H]1C2` (single isomer, unassigned) [Example 5, (+)-(exo)-Methylthiocarbamic acid 1-aza-bicyclo[2.2.1]hept-3-yl ester] as the molecule, how does the Ki (m1 receptor) read?
**A.** 6.93 µM

**Q.** What about the Emax [1, 6] of the same molecule?
**A.** 51.5%

**Q.** And the EC50 [1]?
**A.** 2.9 µM

**Q.** With `O=C(NCC(F)(F)F)O[C@H]1CN2CC[C@H]1C2` (relative stereo) [Example 9, (exo)-(2.2.2-Trifluoroethyl)carbamic acid 1-aza-bicyclo[2.2.1]hept-3-yl ester] as the molecule, how does the Ki (m1 receptor) read?
**A.** 14.5 µM

**Q.** With `O=C(NC1CC1)O[C@H]1CN2CC[C@H]1C2` (single isomer, unassigned) [Example 12] as the molecule, how does the Ki (m1 receptor) read?
**A.** 20.5 µM

**Q.** With `CNC(=O)OC1CC2CCCN(C2)C1` (stereo not drawn) [exo-1-azabicyclo[3.3.1]non-3-yl-N-methylcarbamate] as the molecule, how does the muscarinic activity (muscarinic) read?
**A.** having muscarinic activity

**Q.** Which muscarinic activity (muscarinic) does the source give for `CN(C)C(=O)OC1CC2CCCN(C2)C1` (stereo not drawn) [exo-1-azabicyclo[3.3.1]non-3-yl-N,N-dimethylcarbamate] here?
**A.** having muscarinic activity

**Q.** With `CCNC(=O)O[C@H]1CN2CC[C@H]1C2` (single isomer, unassigned) [Example 7, (+)-(exo)-Ethylcarbamic acid 1-aza-bicyclo[2.2.1]hept-3-yl ester] as the molecule, how does the Ki (m1 receptor) read?
**A.** 14.3 µM

**Q.** Which Ki (m1 receptor) does the source give for `O=C(NC1CC1)O[C@H]1CN2CC[C@H]1C2` (relative stereo) [Example 11, (exo)-Cyclopropylcarbamic acid 1-aza-bicyclo[2.2.1]hept-3-yl ester] here?
**A.** 1.81 µM

**Q.** What about the Emax [1, 7] of the same molecule?
**A.** 10.1%

**Q.** For `COC(=O)C1=CCCN(C)C1` [Arecoline, arecoline], which half-life [2] is on record?
**A.** short half-life

**Q.** And the improvement in memory [3]?
**A.** demonstrated memory improvement in patients with mild to moderate Alzheimer's Disease

**Q.** With `CNC(=O)O[C@H]1CN2CC[C@@H]1C2` (relative stereo) [endo azacycloheptane analog] as the molecule, how does the “functional m1 muscarinic agonism” value [1] read?
**A.** not

**Q.** With `CNC(=O)O[C@H]1CN2CC[C@H]1C2` (relative stereo) [Example 1, (exo)-Methylcarbamic acid 1-aza-bicyclo[2.2.1]hept-3-yl ester] as the molecule, how does the Ki (m1 receptor) read?
**A.** 29.3 µM

**Q.** And the Emax [1, 7]?
**A.** 61.9%

**Q.** And the Emax [1, 6]?
**A.** 54.9%

**Q.** What about the “functional m1 muscarinic agonism” value [1] of the same molecule?
**A.** enhanced muscarinic agonism

**Q.** And the EC50 [1]?
**A.** 6.9 µM

**Q.** With `CNC(=S)O[C@H]1CN2CC[C@H]1C2` (single isomer, unassigned) [Example 6, (-)-(exo)-Methylthiocarbamic acid 1-aza-bicyclo[2.2.1]hept-3-yl ester] as the molecule, how does the Ki (m1 receptor) read?
**A.** 14.5 µM

**Q.** What about the “% PI Hydrolysis ml receptors in CHO cells maximum % carbachol=100%” value ([1]; cho cells, 60 min) of the same molecule?
**A.** 69.7%

**Q.** And the EC50 [1]?
**A.** 6.3 µM

**Q.** For `C[C@@H]1O[C@H](C[N+](C)(C)C)C[C@H]1O` [muscarine], which “activation of m1 receptors” value (m1 receptors) is on record?
**A.** able to fully activate m1 receptors

**Q.** Which results are given for `C#CCNC(=O)O[C@H]1CN2CC[C@H]1C2` (single isomer, unassigned) [Example 13, (-)-(exo)-Propargylcarbamic acid 1-aza-bicyclo[2.2.1]hept-3-yl ester]?
**A.** Ki (m1 receptor): 14.5 µM; Emax [1, 7]: 39.4%

**Q.** For `CCNC(=O)O[C@H]1CN2CC[C@H]1C2` (single isomer, unassigned) [Example 8, (-)-(exo)-Ethylcarbamic acid 1-aza-bicyclo[2.2.1]hept-3-yl ester], which Ki (m1 receptor) is on record?
**A.** 21.5 µM

**Q.** What about the Emax [1, 7] of the same molecule?
**A.** 58.8%

**Q.** With `O=C(NCC(F)(F)F)O[C@H]1CN2CC[C@H]1C2` (single isomer, unassigned) [Example 10, (-)-(exo)-(2.2.2-Trifluoroethyl)carbamic acid 1-aza-bicyclo[2.2.1]hept-3-ylester] as the molecule, how does the Ki (m1 receptor) read?
**A.** 17.6 µM

**Q.** What does the source list for `CNC(=O)O[C@H]1CN2CC[C@H]1C2` (single isomer, unassigned) [Example 3, (-)-(exo)-Methylcarbamic acid 1-aza-bicyclo[2.2.1]hept-3-yl ester]?
**A.** minimal effective dose [4]: 30 mg/kg; Ki (m1 receptor): 26.6 µM; Emax [1, 7]: 71.9%; Emax [1, 6]: 68.7%; EC50 [1]: 9.8 µM

**Q.** Which Ki (m1 receptor) does the source give for `CNC(=S)O[C@H]1CN2CC[C@H]1C2` (relative stereo) [Example 4, (exo)-Methylthiocarbamic acid 1-aza-bicyclo[2.2.1]hept-3-yl ester] here?
**A.** 3.72 µM

**Q.** And the Emax [1, 7]?
**A.** 21.8%

**Q.** For `Nc1c2c(nc3ccccc13)CCCC2` [tactine], which adverse side effects ([3]; higher doses) is on record?
**A.** adverse side effects especially at the higher doses where it is most effective

**Q.** And the improvement in memory [3]?
**A.** improvement in memory can be shown in patients with mild to moderate Alzheimer's Disease

**Q.** For `CNC(=O)O[C@H]1CN2CC[C@H]1C2` (single isomer, unassigned) [Example 2, (+)-(exo)-Methylcarbamic acid 1-aza-bicyclo[2.2.1]hept-3-yl ester], which Ki (m1 receptor) is on record?
**A.** 41.8 µM

**Q.** What about the minimal effective dose [5] of the same molecule?
**A.** 1 mg/kg

**Q.** Which muscarinic activity (muscarinic) does the source give for `CNC(=O)OC1CN2CCCC1C2` (stereo not drawn) [exo-1-azabicyclo[3.2.1oct-6-yl-N-methylcarbamate] here?
**A.** having muscarinic activity
